Data from ChEMBL document CHEMBL1201862, “PubChem BioAssay data set” (2004).
Several values for one entry are separate records, joined by “and”; a condition that tells them apart may be missing. Equal entries are not always repeated.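 Values below derive from 48-hour exposures of cells grown in 96-well plates, with endpoints linearly interpolated between the two concentrations bracketing the appropriate inhibition level. GI50: concentration for 50% inhibition of growth.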 Activity calls are given as the source filed them. Rule as the data show it: active = GI50 up to about 1.1 µM and inactive = higher.

Tests used:
Experiment in all cases: inhibition of tumour cell growth, NCI panel, 48 h
SNB-19 = test system: SNB-19
RXF 393 = test system: RXF 393
SNB-75 = test system: SNB-75
SN12C = test system: SN12C
ACHN = test system: ACHN
HL-60 = test system: HL-60
HCC 2998 = test system: HCC 2998
TK-10 = test system: TK-10
HOP-62 = test system: HOP-62
HCT-15 = test system: HCT-15
NCI-H460 = test system: NCI-H460
MDA-MB-231 = test system: MDA-MB-231
PC-3 = test system: PC-3
SK-MEL-28 = test system: SK-MEL-28
SK-MEL-2 = test system: SK-MEL-2
OVCAR-5 = test system: OVCAR-5
A549 = test system: A549
IGROV-1 = test system: IGROV-1
MDA-N = test system: MDA-N
Malme-3M = test system: Malme-3M
UACC-257 = test system: UACC-257
OVCAR-8 = test system: OVCAR-8
HOP-92 = test system: HOP-92
SR = test system: SR
M14 = test system: M14
SK-MEL-5 = test system: SK-MEL-5
HCT-116 = test system: HCT-116
786-0 = test system: 786-0
MCF7 = test system: MCF7
EKVX = test system: EKVX
UACC-62 = test system: UACC-62
MOLT-4 = test system: MOLT-4
NCI-H226 = test system: NCI-H226
BT-549 = test system: BT-549
HT-29 = test system: HT-29
K562 = test system: K562
U-251 = test system: U-251
KM12 = test system: KM12
COLO 205 = test system: COLO 205
UO-31 = test system: UO-31
A498 = test system: A498
Hs-578T = test system: Hs-578T
RPMI-8226 = test system: RPMI-8226
SW-620 = test system: SW-620
NCI-H23 = test system: NCI-H23
SF-539 = test system: SF-539
DU-145 = test system: DU-145
SF-295 = test system: SF-295
CAKI-1 = test system: CAKI-1
LOX IMVI = test system: LOX IMVI
OVCAR-3 = test system: OVCAR-3
SF-268 = test system: SF-268
NCI/ADR-RES = test system: NCI/ADR-RES
SK-OV-3 = test system: SK-OV-3
OVCAR-4 = test system: OVCAR-4
MDA-MB-435 = test system: MDA-MB-435
NCI-H522 = test system: NCI-H522
CCRF-CEM = test system: CCRF-CEM

In the case of `CCOC(=O)C1CCCCc2sc(N)c(C#N)c21` (centres undefined), the GI50 (SNB-19) is reported as > 100 µM (inactive), the GI50 (RXF 393) is reported as > 100 µM (inactive) and the GI50 (SNB-75) is reported as > 100 µM (inactive). For the same molecule, the GI50 (SN12C) was > 100 µM (inactive), the GI50 (ACHN) was > 100 µM (inactive) and the GI50 (HL-60) was > 100 µM (inactive). The GI50 (HCC 2998) was > 100 µM (inactive), the GI50 (TK-10) was > 100 µM (inactive) and the GI50 (HOP-62) was > 100 µM (inactive). For the same molecule, the GI50 (HCT-15) was over 100 µM, the GI50 (NCI-H460) was > 100 µM (inactive) and the GI50 (MDA-MB-231) was > 100 µM (inactive). For the same molecule, the GI50 (PC-3) was > 100 µM (inactive), the GI50 (SK-MEL-28) was > 100 µM (inactive) and the GI50 (SK-MEL-2) was > 100 µM (inactive). For the same molecule, the GI50 (OVCAR-5) was > 100 µM (inactive), the GI50 (A549) was > 100 µM (inactive) and the GI50 (IGROV-1) was > 100 µM (inactive). The GI50 (MDA-N) was > 100 µM (inactive), the GI50 (Malme-3M) was 71.1 µM (inactive) and the GI50 (UACC-257) was > 100 µM (inactive). The GI50 (OVCAR-8) was > 100 µM (inactive), the GI50 (HOP-92) was > 100 µM (inactive) and the GI50 (SR) was > 100 µM (inactive). For the same molecule, the GI50 (M14) was > 100 µM (inactive), the GI50 (SK-MEL-5) was > 100 µM (inactive) and the GI50 (HCT-116) was > 100 µM (inactive). The GI50 (786-0) was > 100 µM (inactive), the GI50 (MCF7) was > 100 µM (inactive) and the GI50 (EKVX) was > 100 µM (inactive). For the same molecule, the GI50 (UACC-62) was > 100 µM (inactive), the GI50 (MOLT-4) was > 100 µM (inactive) and the GI50 (NCI-H226) was > 100 µM (inactive). The GI50 (BT-549) was > 100 µM (inactive), the GI50 (HT-29) was > 100 µM (inactive) and the GI50 (K562) was > 100 µM (inactive). For the same molecule, the GI50 (U-251) was > 100 µM (inactive), the GI50 (KM12) was > 100 µM (inactive) and the GI50 (COLO 205) was > 100 µM (inactive). For the same molecule, the GI50 (UO-31) was > 100 µM (inactive), the GI50 (A498) was > 100 µM (inactive) and the GI50 (Hs-578T) was > 100 µM (inactive). For the same molecule, the GI50 (RPMI-8226) was > 100 µM (inactive), the GI50 (SW-620) was > 100 µM (inactive) and the GI50 (NCI-H23) was > 100 µM (inactive).

In the case of `C/C=C/C/C=C/CCC(=O)C1OC1C(N)=O` (centres undefined), the GI50 (SF-539) is reported as 15.2 µM (inactive), the GI50 (DU-145) is reported as 17.5 µM (inactive) and the GI50 (SNB-19) is reported as 18.2 µM (inactive). The GI50 (RXF 393) was 9.4 µM (inactive), the GI50 (SNB-75) was 14.3 µM (inactive) and the GI50 (SF-295) was 15 µM (inactive). For the same molecule, the GI50 (SN12C) was 19 µM (inactive), the GI50 (ACHN) was 15.2 µM (inactive) and the GI50 (CAKI-1) was 16.3 µM (inactive). The GI50 (HCC 2998) was 17.3 µM (inactive), the GI50 (TK-10) was 13.2 µM (inactive) and the GI50 (HOP-62) was 2.52 µM (inactive). For the same molecule, the GI50 (HCT-15) was 12.6 µM, the GI50 (NCI-H460) was 12.8 µM (inactive) and the GI50 (LOX IMVI) was 13.2 µM (inactive). For the same molecule, the GI50 (MDA-MB-231) was 16.5 µM (inactive), the GI50 (PC-3) was 15.4 µM (inactive) and the GI50 (SK-MEL-28) was 15.4 µM (inactive). The GI50 (SK-MEL-2) was 18.6 µM (inactive), the GI50 (OVCAR-3) was 18.7 µM (inactive) and the GI50 (OVCAR-5) was 18.8 µM (inactive). For the same molecule, the GI50 (A549) was 20.7 µM (inactive), the GI50 (IGROV-1) was 16.4 µM (inactive) and the GI50 (Malme-3M) was 17.8 µM (inactive). For the same molecule, the GI50 (UACC-257) was 17.3 µM (inactive), the GI50 (OVCAR-8) was 13.3 µM (inactive) and the GI50 (HOP-92) was 16 µM (inactive). The GI50 (SR) was 10.6 µM (inactive), the GI50 (M14) was 15.8 µM (inactive) and the GI50 (SF-268) was 12.5 µM (inactive). For the same molecule, the GI50 (NCI/ADR-RES) was 20 µM (inactive), the GI50 (SK-MEL-5) was 15 µM (inactive) and the GI50 (HCT-116) was 15 µM (inactive). The GI50 (SK-OV-3) was 35.1 µM (inactive), the GI50 (786-0) was 13.1 µM (inactive) and the GI50 (OVCAR-4) was 11.6 µM (inactive). For the same molecule, the GI50 (MCF7) was 14.5 µM (inactive), the GI50 (EKVX) was 18.9 µM (inactive) and the GI50 (UACC-62) was 15.9 µM (inactive). The GI50 (MOLT-4) was 13.2 µM (inactive), the GI50 (BT-549) was 12.2 µM (inactive) and the GI50 (MDA-MB-435) was 14.1 µM (inactive). For the same molecule, the GI50 (HT-29) was 17.3 µM (inactive), the GI50 (K562) was 15.9 µM (inactive) and the GI50 (U-251) was 16.8 µM (inactive). For the same molecule, the GI50 (NCI-H522) was 12.4 µM (inactive), the GI50 (KM12) was 15.3 µM (inactive) and the GI50 (COLO 205) was 18.9 µM (inactive). For the same molecule, the GI50 (UO-31) was 11.8 µM (inactive), the GI50 (Hs-578T) was 22.8 µM (inactive) and the GI50 (CCRF-CEM) was 11.4 µM (inactive). For the same molecule, the GI50 (SW-620) was 19.8 µM (inactive) and the GI50 (NCI-H23) was 14.9 µM (inactive).

With `N#Cc1c(-c2ccccc2)cc(-c2ccccc2)n(C2OC(CO)C(O)C(O)C2O)c1=S` (centres undefined) the GI50 (SNB-19) was 38 µM (inactive) and 33 µM (inactive), the GI50 (RXF 393) was 40.3 µM (inactive) and the GI50 (SNB-75) was 33.2 µM (inactive) and 51.2 µM (inactive). For the same molecule, the GI50 (HL-60) was 36.2 µM (inactive) and 38.7 µM (inactive), the GI50 (TK-10) was 70.3 µM (inactive) and the GI50 (NCI-H460) was 42.1 µM (inactive) and 28.6 µM (inactive). The GI50 (LOX IMVI) was 15 µM (inactive) and 26.8 µM (inactive), the GI50 (PC-3) was 17.1 µM (inactive) and 29.6 µM (inactive) and the GI50 (A549) was 32.7 µM (inactive) and 46.1 µM (inactive). For the same molecule, the GI50 (IGROV-1) was 45.5 µM (inactive) and 31 µM (inactive), the GI50 (MDA-N) was 45 µM (inactive) and 23.2 µM (inactive) and the GI50 (OVCAR-8) was 39.1 µM (inactive) and 32.7 µM (inactive). For the same molecule, the GI50 (SR) was 30.8 µM (inactive) and 30.9 µM (inactive), the GI50 (SF-268) was 34.2 µM (inactive) and 27.4 µM (inactive) and the GI50 (NCI/ADR-RES) was 72.3 µM (inactive). For the same molecule, the GI50 (SK-MEL-5) was 30.4 µM (inactive) and 15.7 µM (inactive), the GI50 (HCT-116) was 37.4 µM (inactive) and 19.7 µM (inactive) and the GI50 (786-0) was 55.5 µM (inactive) and 38.5 µM (inactive). The GI50 (MCF7) was 27.5 µM (inactive) and 43.4 µM (inactive), the GI50 (EKVX) was > 100 µM (inactive) and the GI50 (BT-549) was 32.1 µM (inactive) and 25.6 µM (inactive). For the same molecule, the GI50 (MDA-MB-435) was 21 µM (inactive) and 25.4 µM (inactive), the GI50 (HT-29) was 23.1 µM (inactive) and 34.4 µM (inactive) and the GI50 (U-251) was 18.8 µM (inactive). The GI50 (KM12) was 53.2 µM (inactive) and 48.2 µM (inactive), the GI50 (UO-31) was 41.2 µM (inactive) and 34.3 µM (inactive) and the GI50 (A498) was 19.7 µM (inactive). For the same molecule, the GI50 (Hs-578T) was 21.1 µM (inactive) and 31.9 µM (inactive), the GI50 (RPMI-8226) was 29.2 µM (inactive) and 21.9 µM (inactive) and the GI50 (SW-620) was 37.2 µM (inactive) and 23.6 µM (inactive). For the same molecule, the GI50 (NCI-H23) was 23.4 µM (inactive) and 29 µM (inactive).
